This note sets out measurements from ChEMBL document CHEMBL1136756, “De novo design, synthesis, and evaluation of novel nonsteroidal phenanthrene ligands for the estrogen receptor” (J Med Chem, 2003).

As a reminder, the Ki is the dissociation constant of the complex between target and ligand, obtained from inhibition or displacement.

Molecules are shown by their SMILES.

The target in one assay is T1, Estrogen receptor (Homo sapiens, UniProt P03372).
T1 sequence (P03372 whole entry): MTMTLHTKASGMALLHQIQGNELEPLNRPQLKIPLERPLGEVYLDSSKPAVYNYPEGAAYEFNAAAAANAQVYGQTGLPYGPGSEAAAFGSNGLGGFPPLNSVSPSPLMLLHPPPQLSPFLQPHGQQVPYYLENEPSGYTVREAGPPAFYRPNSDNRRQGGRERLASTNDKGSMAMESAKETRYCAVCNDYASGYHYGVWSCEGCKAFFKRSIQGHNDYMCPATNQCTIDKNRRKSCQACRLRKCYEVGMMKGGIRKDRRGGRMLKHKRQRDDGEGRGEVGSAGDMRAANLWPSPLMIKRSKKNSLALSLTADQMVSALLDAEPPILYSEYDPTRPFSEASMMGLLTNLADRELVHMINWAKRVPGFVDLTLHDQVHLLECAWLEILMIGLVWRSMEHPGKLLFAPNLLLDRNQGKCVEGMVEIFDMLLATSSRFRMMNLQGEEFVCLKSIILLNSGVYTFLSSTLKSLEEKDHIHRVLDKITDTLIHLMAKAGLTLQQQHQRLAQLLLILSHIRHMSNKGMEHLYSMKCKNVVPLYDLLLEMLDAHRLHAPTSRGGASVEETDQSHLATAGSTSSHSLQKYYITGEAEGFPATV

The target of a further assay is Estrogen receptor beta (Homo sapiens, UniProt Q92731).
Chain of Estrogen receptor beta (Q92731 whole entry): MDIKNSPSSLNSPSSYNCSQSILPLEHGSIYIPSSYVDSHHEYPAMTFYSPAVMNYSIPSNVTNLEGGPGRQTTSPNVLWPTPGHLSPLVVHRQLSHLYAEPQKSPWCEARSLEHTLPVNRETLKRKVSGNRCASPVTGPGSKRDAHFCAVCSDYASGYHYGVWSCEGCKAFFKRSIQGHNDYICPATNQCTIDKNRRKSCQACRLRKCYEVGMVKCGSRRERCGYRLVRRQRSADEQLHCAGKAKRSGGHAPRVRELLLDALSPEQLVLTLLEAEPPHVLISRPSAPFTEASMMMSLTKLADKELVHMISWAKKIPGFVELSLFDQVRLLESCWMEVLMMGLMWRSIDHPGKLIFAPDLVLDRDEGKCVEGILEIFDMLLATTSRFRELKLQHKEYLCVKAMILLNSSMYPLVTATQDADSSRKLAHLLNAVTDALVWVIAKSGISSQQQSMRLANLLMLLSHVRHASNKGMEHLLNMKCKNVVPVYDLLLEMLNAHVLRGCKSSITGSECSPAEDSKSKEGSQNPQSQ

Description for Estrogen receptor beta: In vitro displacement of 0.5 nM [3H]17-beta-estradiol from human Estrogen receptor beta

With `CCc1ccc2c(c1)C(c1ccc(OCCN3CCCCC3)cc1)Cc1cc(O)cc(C)c1-2` (stereo unspecified), the results for the Ki at Estrogen receptor and on Estrogen receptor beta were 8.69 nM and 190 nM, respectively. Regarding `CC(C)=C(C)c1ccc2c(c1)c(-c1ccc(OCCN3CCCCC3)cc1)cc1cc(O)cc(C)c12`, the Ki on Estrogen receptor came out at 210 nM; at Estrogen receptor beta, 200 nM. Taken in the same sequence, the figures for `CC(=O)c1ccc2c(c1)c(-c1ccc(OCCN3CCCCC3)cc1)cc1cc(O)cc(C)c12` were above 1000 nM and 630 nM. The like results for `Cc1cc(O)cc2cc(-c3ccc(OCCN4CCCCC4)cc3)c3cc(C(=O)C(C)C)ccc3c12` were, in that order, 490 nM and above 1000 nM. Turning to `C=C(C)c1ccc2c(c1)c(-c1ccc(OCCN3CCCCC3)cc1)cc1cc(O)cc(C)c12`, the values for the Ki at Estrogen receptor and on Estrogen receptor beta were 290 nM and 180 nM, respectively. On to `Cc1cc(O)cc2cc(-c3ccc(OCCN4CCCCC4)cc3)c3cc(C(C)O)ccc3c12` (stereo unspecified), for which the Ki on Estrogen receptor beta was 190 nM.
